In patent US20220205982A1 (CHILDREN'S HOSPITAL MEDICAL CENTER, priority 2019, published 2022):
Several values for one entry are separate records, joined by “and”; a condition that tells them apart may be missing. Identical values can stand only once. Like-named read-outs stand apart in the source and are kept apart here.

How the values were obtained:
[1] = cited from earlier work
[2] = Melphalan test dose and full dose pharmacokinetics in patients undergoing RIC allogeneic HCT for non-malignant disorders (Bayesian analysis of plasma concentrations); assay type: in vivo, human; details: for AUC: human, plasma, intravenous
Method: Patients undergoing allogeneic HCT for non-malignant disorders with a uniform RIC regimen that included alemtuzumab, fludarabine and melphalan were enrolled in this study. Full standard dose of melphalan was set as follows: • 140 mg/m^2 in patients having a body weight >10 kg, • 4.7 mg/kg in patients having a body weight <10 kg, and • 70 mg/m^2 in one patient with a radio sensitivity disorder.
The patients were given a test dose of melphalan (10% of the standard full dose) prior to start of their preparative regimen. Test dose of 10% of the full standard dose was determined to be the lowest dose level that would be measurable for a sufficiently long time interval (0-4h) to allow reliable AUC estimation. Accordingly, the test doses used in this study were 14 mg/m^2, 7 mg/m^2 and 0.47 mg/kg for patients having the standard full doses of 140 mg/m^2, 70 mg/m^2 and 4.7 mg/kg, respectively.
Blood samples were obtained for PK measurement after the administration of test dose and the full standard dose of melphalan. A total of 10 blood samples were obtained around each dose of melphalan: at baseline (5-10 min prior to start of the melphalan infusion of) and then approximately at 5 min, 15 min, 30 min, 45 min, 60 min, 2 hour, 2.5, 4, and 6 hours after the end of the melphalan infusion. Samples were collected on ice and transported to the institution's mass spectrometry laboratory for instant analysis by PS-MS/MS and conventional LC-MS/MS. Patient data collected for analysis included baseline organ function, presence of oral and gastrointestinal mucositis, renal and liver dysfunction including VOD, initial donor chimerism, graft rejection, and acute and chronic GVHD (aGVHD and cGVHD). The Common Terminology Criteria for Adverse Events (CTCAE) version 4.0 was used to evaluate adverse events. Acute and chronic GVHD were assessed by standardized published criteria. See, e.g., Glucksberg H, et al. Transplantation. 1974; 18:295-304 and Filipovich A H, et al. Biol Blood Marrow Transplant. 2005; 11:945-956. Interim analyses were completed after enrollment of 5 patients and 10 patients respectively to validate data following 25% and 50% of intended total patient enrollment. The AUC range that led to full donor chimerism without excess toxicity in majority of patients was selected to be the desired target AUC for full dose adjustment. In patients with baseline impaired organ function, personalized full dose melphalan was adjusted to limit toxicity if test dose PK predicted standard full dose AUC was higher than the desired target AUC range.
Melphalan levels were measured by validated PS-MS/MS and LC-MS\MS methods (Mirkou A, etc., J Chromatogr B Analyt Technol Biomed Life Sci. 2009; 877:3089-3096). For the PS-MS/MS method, all samples were analyzed using an automated Paper Spray ion source (Prosolia, Inc. Indianapolis, Ind.) interfaced with a TSQ Quantum Ultra mass spectrometer (Thermo Scientific, San Jose, Calif.) operated in selected reaction monitoring (SRM) mode. XCalibur software was used to control the MS and to process data. Specific precursor/product ions were simultaneously monitored for melphalan and its stable isotopically-labelled internal standard (D8-melphalan) by collision-induced dissociation (CID). Blood samples were prepared by spiking known amounts of melphalan standards and the internal standard into drug free human blood to establish a calibration curve and quality control samples. A small amount of patient's blood […] equilibrated with D8-melphalan solution was deposited on the Paper Spray cartridge and dried. A small volume of solvent optimized to efficiently extract the drug was applied to the paper. A stepwise high voltage (3-5 kV) was then applied inducing an electrospray ionization at the tip of the paper; the solvent evaporates from the droplets generating gas phase ions of the analyte, which then can be detected by a mass spectrometer. […]

[3] = a 4-month infant, normal renal and liver function for age
[4] = median and range, 16 patients with normal organ function
[5] = median and range, 17 patients who received standard full dose
[6] = median and range, patients <10 kg, normal organ function, n=5, dose 0.47 mg/kg, 0.47 mg/kg
[7] = median and range, patients >10 kg, normal organ function, n=11, dose 14 mg/m^2

N[C@@H](Cc1ccc(N(CCCl)CCCl)cc1)C(=O)O [melphalan, 4-[Bis(2-chloroethyl)amino]-L-phenylalanine]
inter-patient variability in melphalan exposure ([1]; adults undergoing autologous HCT for multiple myeloma): up to 5 fold
contribution of renal elimination to melphalan clearance ([1]; in vivo): low
penetration into cerebrospinal fluid (CSF) ([1]; in vivo): low
steady-state volume of distribution ([1]; in vivo): about 0.5 L/kg
test dose clearance [2, 3]: 15.7 L/h/70 kg
test dose predicted full dose AUC [2, 3]: 11.1 µg·h/mL
AUC ([2]; 0.44 mg/kg, sixth patient, initial HCT, full dose 0.44 mg/kg (9.3% of standard dose), read-out: AUC achieved): 1100 ng·h/mL
AUC ([2]; 0.47 mg/kg, median and range, patients <10 kg, normal organ function, n=5, dose 0.47 mg/kg, read-out: test dose AUC): 560 ng·h/mL
AUC ([2]; 1.2 mg/kg, sixth patient, second HCT, full dose 1.2 mg/kg (25.5% of standard dose), read-out: actual observed AUC): 3900 ng·h/mL
AUC ([2]; 4.7 mg/kg, infant who developed VOD, read-out: full dose melphalan AUC): 6900 ng·h/mL
AUC ([2]; 4.7 mg/kg, median and range, patients <10 kg, standard dose 4.7 mg/kg, n=6, read-out: full dose AUC): 4800 ng·h/mL
AUC ([2]; 14 mg/m2, median and range, patients >10 kg, normal organ function, n=11, dose 14 mg/m^2, read-out: test dose AUC): 520 ng·h/mL
AUC ([2]; 70 mg/m^2, patient with VOD and diffuse alveolar hemorrhage, ataxia telangiectasia, read-out: full dose melphalan AUC): 5000 ng·h/mL
AUC ([2]; 140 mg/m2, median and range, patients >10 kg, standard dose 140 mg/m2, n=11, read-out: full dose AUC): 5500 ng·h/mL
AUC ([2]; 140 mg/m2, patient with grade 4 mucositis and gastrointestinal bleeding, read-out: full dose AUC (highest melphalan exposure)): 9500 ng·h/mL
AUC ([2]; five patients, adjusted full dose 29% to 70% of standard dose, read-out: actual observed AUC with the adjusted dose): 3600 to 5400 ng·h/mL
AUC ([2]; median and range, 16 patients with normal organ function, read-out: test dose AUC): 550 ng·h/mL
AUC ([2]; median and range, 17 patients who received standard full dose, read-out: full dose AUC): 5500 ng·h/mL
AUC ([2]; median and range, six patients (7 transplants) with impaired organ function, adjusted full dose, read-out: test dose AUC): 840 ng·h/mL
AUC ([2]; median in the 12/17 (70.6%) patients with AUC between 3.5 and 6.5, read-out: full dose AUC): 5200 ng·h/mL
AUC ([2]; median, PK-adjusted full dose, N = 6 (7), read-out: Full dose AUC): 3900 ng·h/mL
AUC ([2]; median, PK-adjusted full dose, N = 6 (7), read-out: Test dose AUC): 840 ng·h/mL
AUC ([2]; median, Standard full dose, N = 16 (16), read-out: Test dose AUC): 550 ng·h/mL
AUC ([2]; median, Standard full dose, N = 17 (17), read-out: Full dose AUC): 5500 ng·h/mL
AUC ([2]; median, Total, N = 22 (23), read-out: Test dose AUC): 590 ng·h/mL
AUC ([2]; median, Total, N = 23 (24), read-out: Full dose AUC): 5000 ng·h/mL
AUC ([2]; patient with normal organ function who developed grade 4 gastrointestinal mucositis, read-out: full dose AUC): 9500 ng·h/mL
AUC ([2]; patients with impaired organ function, adjusted full dose, read-out: observed AUC based on the test dose PK guided adjustment): 3900 ± 1400 ng·h/mL
AUC ([2]; full dose melphalan, RIC HCT for non-malignant disorders, read-out: AUC range well tolerated without excess toxicity and sufficient to facilitate engraftment with full donor chimerism): 3500 to 6500 ng·h/mL
FCLstd (body weight normalized clearance by allometric scaling) ([2]; individual patients, full dose): 27.4 L/h/70 kg and 46.9 L/h/70 kg and 43.1 L/h/70 kg and 66.8 L/h/70 kg and 30.2 L/h/70 kg and 59.4 L/h/70 kg and 62.8 L/h/70 kg and 38.9 L/h/70 kg and 18.6 L/h/70 kg and 38.3 L/h/70 kg and 42.7 L/h/70 kg and 18.8 L/h/70 kg and 33.9 L/h/70 kg and 38.0 L/h/70 kg and 29.4 L/h/70 kg and 15.1 L/h/70 kg and 25.0 L/h/70 kg and 12.3 L/h/70 kg and 43.5 L/h/70 kg and 36.9 L/h/70 kg and 19.7 L/h/70 kg and 50.6 L/h/70 kg and 34.5 L/h/70 kg
Predicted FAUC (test dose PK evaluation) ([2]; individual patients, full dose AUC predicted from test dose PK): 2.9 mg · h/L and 6.5 mg · h/L and 5.9 mg · h/L and 5.1 mg · h/L and 5.2 mg · h/L (3×) and 5.7 mg · h/L (2×) and 14.0 mg · h/L and 14.5 mg · h/L and 7.2 mg · h/L and 5.6 mg · h/L and 4.8 mg · h/L and 6.1 mg · h/L and 5.5 mg · h/L and 11.6 mg · h/L and 11.1 mg · h/L and 16.8 mg · h/L and 7.1 mg · h/L and 13.8 mg · h/L and 4.4 mg · h/L and 7.4 mg · h/L
TCLstd (test dose body weight normalized clearance by allometric scaling) ([2]; individual patients, test dose): 47.3 L/h/70 kg and 44.0 L/h/70 kg and 38.8 L/h/70 kg and 56.2 L/h/70 kg and 52.2 L/h/70 kg and 47.8 L/h/70 kg and 49.5 L/h/70 kg and 12.1 L/h/70 kg and 45.2 L/h/70 kg and 18.5 L/h/70 kg and 33.1 L/h/70 kg and 27.5 L/h/70 kg and 33.9 L/h/70 kg and 27.0 L/h/70 kg and 32.3 L/h/70 kg and 13.6 L/h/70 kg and 15.7 L/h/70 kg and 11.3 L/h/70 kg and 35.9 L/h/70 kg and 49.6 L/h/70 kg and 19.2 L/h/70 kg and 67.1 L/h/70 kg and 32.8 L/h/70 kg
predicted AUC for standard full dose melphalan [2, 4]: 2.9 to 11.1 µg·h/mL and 5.5 µg·h/mL
test dose AUC [2, 4]: 0.29 to 1.1 µg·h/mL
full dose AUC [2, 5]: 3.0 to 9.5 µg·h/mL
full dose clearance [2, 5]: 38.3 L/h/70 kg and 25.0-66.8 L/h/70 kg
test dose AUC [2, 6]: 0.48 to 1.11 µg·h/mL
test dose clearance [2, 6]: 27.6 L/hr./70 kg and 15.7-34.0 L/hr./70 kg
full dose AUC ([2]; median and range, patients <10 kg, standard dose 4.7 mg/kg, n=6, 4.7 mg/kg): 3.0 to 6.9 µg·h/mL
test dose AUC [2, 7]: 0.29 to 0.72 µg·h/mL
test dose clearance [2, 7]: 47.8 L/h/70 kg and 33.1-67.2 L/h/70 kg
